Like-named read-outs stand apart in the source and are kept apart here.
Experiment: Plasma pharmacokinetics after single oral dose of Δ8-THCV in MCT oil (LC-MS/MS, non-compartmental analysis)
Format: in vivo, human
Details: for concentration at 0.5 h / concentration at 1 h / concentration at 2 h / concentration at 4 h / concentration at 6 h / concentration at 8 h / Tmax / AUC(0-t) / Cmax / MRT: human, plasma; for Tmax: read-out: tmax; for MRT: read-out: MRT (mean residence time)
Procedure, shortened: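 Healthy participants received single oral Δ8-THCV in MCT oil (50 mg/mL; 12.5-200 mg, or placebo) after a high-fat, high-calorie breakfast, with ≥1-week washout. Plasma (K2EDTA) sampled predose and 0.5-8 h post-dose, assayed by validated LC-MS/MS including metabolites; PK by non-compartmental analysis, sub-LLOQ values set to 0.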

[1] = oral, 100 mg, 100 mg Δ8-THCV dose, Mean (SD, %CV)
[2] = oral, 100 mg, 100 mg Δ8-THCV dose, Median (IQ Range)
[3] = oral, 200 mg, 200 mg Δ8-THCV dose, Mean (SD, %CV)
[4] = oral, 200 mg, 200 mg Δ8-THCV dose, Median (IQ Range)
[5] = po, 12.5 mg, 12.5 mg single oral Δ8-THCV in MCT oil, Mean (±SD)
[6] = po, 12.5 mg, 12.5 mg single oral Δ8-THCV in MCT oil, Median (Range)
[7] = po, 25 mg, 25 mg single oral Δ8-THCV in MCT oil, Mean (±SD)
[8] = po, 25 mg, 25 mg single oral Δ8-THCV in MCT oil, Median (Range)
[9] = po, 50 mg, 50 mg single oral Δ8-THCV in MCT oil, Mean (±SD)
[10] = po, 50 mg, 50 mg single oral Δ8-THCV in MCT oil, Median (Range)
[11] = po, 100 mg, 100 mg single oral Δ8-THCV in MCT oil, Mean (±SD)
[12] = po, 100 mg, 100 mg single oral Δ8-THCV in MCT oil, Median (Range)
[13] = po, 200 mg, 200 mg single oral Δ8-THCV in MCT oil, Mean (±SD)
[14] = po, 200 mg, 200 mg single oral Δ8-THCV in MCT oil, Median (Range)

CCCc1cc(O)c2c(c1)OC(C)(C)[C@@H]1CCC(C(=O)O)=C[C@@H]21 [Δ9-THCV-COOH, 11-nor-9-carboxy-Δ9-THCV]
concentration at 0.5 h [1]: 0.3 ng/mL
concentration at 0.5 h [2]: 0 ng/mL
concentration at 1 h [1]: 5.8 ng/mL
concentration at 1 h [2]: 1.9 ng/mL
concentration at 2 h [1]: 9.2 ng/mL
concentration at 2 h [2]: 8.7 ng/mL
concentration at 4 h [1]: 16.1 ng/mL
concentration at 4 h [2]: 16 ng/mL
concentration at 6 h [1]: 15.6 ng/mL
concentration at 6 h [2]: 17.5 ng/mL
concentration at 8 h [1]: 10.8 ng/mL
concentration at 8 h [2]: 10.5 ng/mL
concentration at 0.5 h [3]: 0.1 ng/mL
concentration at 0.5 h [4]: 0 ng/mL
concentration at 1 h [3]: 4.9 ng/mL
concentration at 1 h [4]: 2.7 ng/mL
concentration at 2 h [3]: 19.1 ng/mL
concentration at 2 h [4]: 9.4 ng/mL
concentration at 4 h [3]: 37.1 ng/mL
concentration at 4 h [4]: 40 ng/mL
concentration at 6 h [3]: 32.3 ng/mL
concentration at 6 h [4]: 28.5 ng/mL
concentration at 8 h [3]: 29.2 ng/mL
concentration at 8 h [4]: 26.3 ng/mL
Tmax (oral, present study, MCT oil formulation, as compared in discussion): 5 h
AUC(0-t) [5]: 7.9 ng·h/mL
Cmax [5]: 2.7 ng/mL
AUC(0-t) [6]: 5.6 ng·h/mL
Cmax [6]: 2.8 ng/mL
MRT [5]: 5.1 h
Tmax [5]: 5.1 h
MRT [6]: 5.3 h
Tmax [6]: 4 h
AUC(0-t) [7]: 18.3 ng·h/mL
Cmax [7]: 4.2 ng/mL
AUC(0-t) [8]: 19.6 ng·h/mL
Cmax [8]: 4.4 ng/mL
MRT [7]: 4.8 h
Tmax [7]: 4.6 h
MRT [8]: 4.6 h
Tmax [8]: 4 h
AUC(0-t) [9]: 33.4 ng·h/mL
Cmax [9]: 8.8 ng/mL
AUC(0-t) [10]: 30.8 ng·h/mL
Cmax [10]: 7.7 ng/mL
MRT [9]: 5.5 h
Tmax [9]: 5.1 h
MRT [10]: 5.5 h
Tmax [10]: 6 h
AUC(0-t) [11]: 92.5 ng·h/mL
Cmax [11]: 22.5 ng/mL
AUC(0-t) [12]: 86.5 ng·h/mL
Cmax [12]: 20.6 ng/mL
MRT [11]: 4.9 h
Tmax [11]: 4.5 h
MRT [12]: 4.6 h
Tmax [12]: 4 h
AUC(0-t) [13]: 201 ng·h/mL
Cmax [13]: 50.3 ng/mL
AUC(0-t) [14]: 190 ng·h/mL
Cmax [14]: 48.2 ng/mL
MRT [13]: 5.1 h
Tmax [13]: 5.3 h
MRT [14]: 5.2 h
Tmax [14]: 6 h
number of positive plasma samples (of 504 plasma samples from 15 participants after oral Δ8-THCV): 260
concentration in representative plasma sample (one subject after oral Δ8-THCV in MCT oil, Figure A1): 33.2 ng/mL

— publication PMC11676667, “Pharmacokinetics of Oral Cannabinoid Δ8-Tetrahydrocannabivarin and Its Main Metabolites in Healthy Participants” (Pharmaceuticals, 2024)
